Experimental findings from patent US5468756A, “Imidazonaphthyridine derivatives” (Kyowa Hakko Kogyo Co., Ltd., priority 1990, dated 1995) are described below.

Each structure is given as a SMILES string.

Data set [1] deals with carrageenin-induced paw edema. Description: Effect on carrageenin-induced paw edema. The conditions noted are these: Rattus norvegicus, 3 hours after carrageenin, read-out: Suppression rate for paw swelling, carrageenin-induced edema; for inhibition in vivo at 100 mg/kg: p.o. The format is in vivo, male Wistar rats. In outline: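 Male Wistar rats (150-160 g, n=3-5) dosed orally at 25, 50 or 100 mg/kg, one hour before 0.1 ml 1% carrageenin injected subcutaneously into the right hind footpad. Paw volume by plethysmograph before and 3 h after; suppression of swelling rate relative to saline controls.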

Data set [2] has as its system zymosan-induced paw edema. The data set is described as follows: Effect on zymosan-induced paw edema. The data set is classed as in vivo, male Wistar rats. The conditions noted are these: Rattus norvegicus, po, read-out: Suppression rate for paw swelling, zymosan-induced edema; for inhibition in vivo at 25 mg/kg: 25 mg/kg P.O. As to the method:
Male Wistar rats weighing 150 to 160 g (n=3-5) were used in the experiment. After the right hind paw volume was measured with the plethysmograph (TK-101; Unicom Co., Ltd.), the test compound (25, 50 or 100 mg/kg) was orally administered. After one hour, 0.1 ml of 1% carrageenin (λ-carrageenin; PICNIN-A®, Zushi Kagaku Co., Ltd.) was subcutaneously injected into the right hind paw footpad. Three hours after the injection of carrageenin, the right hind paw volume was measured and the swelling rate was determined by the following equation 1. [formula] Vt: the right hind paw volume measured 3 hours after the injection of carrageenin
Vo: the right hind paw volume measured prior to the injection of carrageenin
The suppression rate was calculated by the following equation 2. [formula] Swt: the swelling rate of the group administered with the test compound Swc: the swelling rate of the control group administered with physiological saline solution
b) Effect on zymosan-induced paw edema
The experiment was carried out in the same manner as in the carrageenin-induced paw edema test except that 1% zymosan (Zymosan A®; Sigma Chemical Co.) was used in place of 1% carrageenin and the right hind paw volume was measured […] the injection of the edema-inducing substance instead of 3 hours. The swelling rate and the suppression rate were calculated by equation 1 and equation 2, respectively.

The test system of data set [3] is Type III allergic reaction-induced pleurisy. Description: Effect on Type III allergic reaction-induced pleurisy. The data set is classed as in vivo, male Wistar rats. Particulars: 100 mg/kg orally; rats; 4.5 h after induction of pleurisy. How it is done: c) Effect on Type III allergic reaction-induced pleurisy
1. Preparation of IgG fraction of rabbit anti-egg white albumin (anti-OA)
IgG was purified from rabbit anti-OA serum prepared in advance by the method of Koda et al. [Folia Pharmacol., Japon 66, 237, (1970)] in the following manner.
A saturated solution of ammonium sulfate (half volume of the serum) was added to the anti-OA serum, and the mixture was left for one hour at 4° C. The precipitate was taken by centrifugation (3,000 rpm, 30 min. 4° C.) and dissolved in phosphate buffer of Dulbecco. Then, ammonium sulfate fractionation was carried out three times in the same manner as above, whereby a purified IgG fraction was obtained.
2. Type III allergic reaction-induced pleurisy
Male Wistar rats weighing 225-250 g were pre-bred for several days and fasted overnight prior to the experiment. The test compound (100 mg/kg) was orally administered to the animals, and after 30 minutes, a solution of IgC of rabbit anti-OA (0.2 ml, 5 mg protein/ml) was injected into the pleural cavity of the animals from the right side of thorax under anesthesia with ether. Thirty minutes after the injection of IgG, OA (albumin egg grade III; Sigma Chemical Co.) was intravenously injected into the animals as an inducer of pleurisy. After two hours, Evans Blue (25 mg/kg) was intravenously injected, and four and a half hours after the induction of pleurisy, the animals were killed by bleeding.
Then, an exudate in the pleural cavity was obtained, and the volume of the exudate was measured. The pleural cavity was rinsed with 5 ml of physiological saline and the rinsings were added to the exudate. The number of infiltrated cells in the mixture was counted and the volume of the dye in the mixture was determined by the absorption at 625 nm [Agent Actions., 25, 326 (1988)]. The suppression rates for the volume of the exudate, the number of infiltrated cells and the volume of the dye in the pleural cavity were calculated by the following equation 3. [formula] […]

For data set [4], the system named is passive Schultz-Dale reaction. Description: Effect on passive Schultz-Dale reaction (broncho-dilative activity), sensitized tracheal strips contracted by antigen. Also noted: species or system male Hartley guinea pigs. The conditions noted are these: guinea pig tracheal zig-zag strips, 37° C., antigen egg white albumin 1 μg/ml; read-out: Passive Schultz-Dale reaction IC50 (concentration of 50% relaxation rate). Summed up: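 Male Hartley guinea pigs were passively sensitized i.p. with rabbit anti-OA serum, and tracheal zig-zag strips were taken 24 h later. Compounds were added cumulatively at the plateau, and IC50 (50% relaxation) was taken from the regression line of the concentration-relaxation curves.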

The subject of data set [5] is platelet activating factor (PAF)-induced mortality. The data set is described as follows: Inhibition effect on platelet activating factor (PAF)-induced mortality. The data set is classed as in vivo, male dd mice. Particulars: Mus musculus, po, PAF 40 μg/kg i.v., 3 h, n = 10, control group survival 0-20%, read-out: Survival rate of test compound-administered group. In outline:
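Male dd mice (28–32 g, 10 per group) dosed orally with 50 or 100 mg/kg compound or saline. PAF at 40 μg/kg given intravenously 1 h later; mortality recorded 3 h after PAF injection.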

For the next data set, the system named is ddY strain male mice. The data set is described as follows: Acute toxicity (Minimum Lethal Dose). The data set is classed as in vivo. How it is done: The test compound was orally and intraperitoneally administered to ddY strain male mice weighing 20 to 25 g. MLD (Minimum Lethal Dose) was determined by observing the mortality for […] after the administration.

In the case of `CCCCn1c(=O)c2ncn(C)c2c2cccnc21` [Compound 1, 5-(n-Butyl)-1-methyl-1H-imidazo[4,5-c][1,8]naphthyridin-4(5H)-one], the inhibition in vivo at 100 mg/kg in data set [1] is 40.1%. Besides, the inhibition in vivo at 100 mg/kg in data set [2] came to 38.8%. For the same compound, in data set [3], the “Suppression rate, number of infiltrated cells in the exudate” value is on record as 84.1%; the “Suppression rate, volume of dye in the exudate” value came to 80.3%; the “Suppression rate, volume of exudate” value stood at 100%. Besides, the IC50 in data set [4] stood at 12 µM. The responders at 100 mg/kg in data set [5] turned out to be 90%.

`CC(=O)OCCn1cnc2c3cccnc3n(-c3ccccc3)c(=O)c21` [Compound 34, 3-(2-Acetoxyethyl)-5-phenyl-3H-imidazo[4,5-c][1,8]naphthyridin-4(5H)-one]: in data set [1] (po, 50 mg/kg P.O.), the inhibition in vivo at 50 mg/kg was 42.2%. Moreover, in data set [2], the inhibition in vivo at 25 mg/kg was 41.6%. Further, the IC50 in data set [4] is 0.68 µM. Moreover, the responders at 100 mg/kg in data set [5] amounted to 70%. In the data set with ddY strain male mice, the “MLD (Minimum Lethal Dose) i.p.” value was above 100 mg/kg and the “MLD (Minimum Lethal Dose) p.o.” value is on record as above 300 mg/kg.

For the compound `O=c1c2c(ncn2Cc2ccc(F)cc2)c2cccnc2n1-c1ccccc1` [Compound 44, 3-(4-Fluorophenyl)methyl-5-phenyl-3H-imidazo[4,5-c][1,8]naphthyridin-4(5H)-one], in data set [1], the inhibition in vivo at 100 mg/kg worked out at 42.8%. In addition, the inhibition in vivo at 25 mg/kg in data set [2] was found to be 63.9%. Besides, the IC50 in data set [4] amounted to 6.6 µM. The responders at 100 mg/kg in data set [5] amounted to 50%. Also, in the data set on ddY strain male mice, the “MLD (Minimum Lethal Dose) i.p.” value was above 50 mg/kg and the “MLD (Minimum Lethal Dose) p.o.” value is above 300 mg/kg.
